The test system of data set [1] is DP50 cotton zygotic embryo explants. In words: Relative activity of different formulations of dikegulac on DP50 cotton zygotic embryo explants. It counts as cell-based. To be noted: cv DP50. The method, then: Any common plant tissue culture media can be used, including, but not limited to, modified LP medium, DKW medium, GD1 medium, MS/B5 medium, or WPM medium. Embryo axes should be placed apical end up and basal end into the medium so that the radicle is beneath the medium surface. The explants are cultured axenically at approximately 25-28° C. under fluorescent lighting at about 10-50 μE PAR for a 16-hour photoperiod. Typically it takes 5-10 weeks for multiple shoots in cotton to develop to a useful size. Table 4 is a comparison of many different formulations of dikegulac.

The next data set concerns cotton embryos. In words: Multiple shoot formation from cotton embryos cultured on varying levels of dikegulac with 1 mg/L IAA and 1 mg/L BAP. Type of data set: cell-based. The method, then: Tissue culture: Embryo explants are cultured in media in a suitable culture vessel containing 500 mg/L sodium dikegulac (2,3:4,6-diisopropylidene-2-keto-1-gulonic acid), 1 mg/L IAA (indole-3-acetic acid), and 1 mg/L BA (N-6-benzyladenine) (herein after referred to as DIB media). Any common plant tissue culture media can be used, including, but not limited to, modified LP medium, DKW medium, GD1 medium, MS/B5 medium, or WPM medium. Embryo axes should be placed apical end up and basal end into the medium so that the radicle is beneath the medium surface. The explants are cultured axenically at approximately 25-28° C. under fluorescent lighting at about 10-50 μE PAR for a 16-hour photoperiod. Typically it takes 5-10 weeks for multiple shoots in cotton to develop to a useful size. Experiments were done to determine if the form of the dikegulac is important and to determine a minimum optimum level of dikegulac needed for multiple shoot formation. […] What is not captured in the numerical data in Table 3 is the overall phenotypic response of the cultures. The explants cultured on the MS/B5 medium contained a lot of callus tissue at the base and the cultures were yellowing. The cultures on GD1 contained only a minimal amount of callus but the yellowing of the regenerating tissues was present.

The test system of the next data set is cotton plants. In words: Morphology and fertility of cotton plants grown from elongated, rooted shoots produced with dikegulac. Type of data set: in vivo. The text has this: Elongation and rooting After multiple shoots are produced, individual shoots, epicotyls, or entire shoot clump developed on the explant are excised and subcultured on the basal medium used above (without the growth regulators, or with exogenous auxin) under the same temperature and light conditions. Table 4 is a comparison of many different formulations of dikegulac.

For a further data set, the system named is cotton explants. In words: Early experiments with dikegulac sodium salt in the culture medium for cotton. Type of data set: cell-based. Conditions: 1000 mg/L incorporated into the culture medium. The method, then: Forms of dikegulac: Dikegulac comes in several forms, for example a sodium salt, Atrimmec™, and free add. Early experiments were done using 1000 mg/L of the sodium salt incorporated into the culture medium for cotton. […] Later tests reduced this to 500 mg/L for ease of shoot development. Sodium dikegulac (500 mg/L) was tested in all combinations with BAP (0, 1, and 5 mg/L) and IAA (0, 1, and 5 mg/L). For US upland cotton varieties, 500 mg/L dikegulac, 1 mg/L IAA and 1 mg/L BA is a particularly useful combination. Zeatin riboside (ZR) can be substituted for BA with good results. The cytokinin component can also be omitted with good results.

Setting [2] is: Study 1, 500 mg/L, liquid DIB medium.
[3] abbreviates: Study 1, 500 mg/L, solid DIB medium.
The mark [4] stands for this setting: Study 2, 500 mg/L, solid DIB medium.
[5] abbreviates: MS/B5 medium, dikegulac 200 mg/L.
Where [6] appears, read: MS/B5 medium, dikegulac 300 mg/L.
Where [7] appears, read: MS/B5 medium, dikegulac 500 mg/L.

Counter-ions that a name gives are not always drawn.

On to `CC1(C)OC[C@@H]2O[C@@]3(C(=O)[O-])OC(C)(C)O[C@H]3[C@@H]2O1.[Na+]` [D4043], for which the “Extra buds per viable explant” value in data set [1] (setting [2]) is 3.9; in data set [1] (setting [3]), 3.4; in data set [1] (setting [4]), 4.1. The “No. non-viable Explants” value in data set [1] (setting [2]) is 16; in data set [1] (setting [3]), 5; in data set [1] (setting [4]), 8. The figures for the “Percent Responding” value in data set [1] (setting [2]), in data set [1] (setting [3]) and in data set [1] (setting [4]) were 84%, 92% and 83%, respectively.

Turning to `CC1(C)OC[C@@H]2O[C@@]3(C(=O)[O-])OC(C)(C)O[C@H]3[C@@H]2O1.[Na+]` [RJK-H], the “Extra buds per viable explant” value was determined as 3.7 in data set [1] (setting [3]); 1.9 in data set [1] (Study 3, 400); 3.0 in data set [1] (Study 3, 500); 3.4 in data set [1] (Study 3, 600); 3.1 in data set [1] (Study 3, 700). In addition, the “No. non-viable Explants” value in data set [1] (setting [3]) stood at 9; in data set [1] (Study 3, 400) it was 20; in data set [1] (Study 3, 500) it was 17; in data set [1] (Study 3, 600), 24; in data set [1] (Study 3, 700) it was 33. For the same compound, the “Percent Responding” value in data set [1] (setting [3]) amounted to 85%; in data set [1] (Study 3, 400) it was 75%; in data set [1] (Study 3, 500) it was 79%; in data set [1] (Study 3, 600) it was 70%; in data set [1] (Study 3, 700) it was 59%.

Consider `CC1(C)OC[C@@H]2O[C@@]3(C(=O)O)OC(C)(C)O[C@H]3[C@@H]2O1` [dikegulac (acid form), 2,3:4,6-di-o-isopropylidene-2-keto-L-gulonic add], for which the “# Responding, single shoots” value is on record as 39/50 with cotton embryos (GD1 medium, dikegulac 100 mg/L); 22/50 with cotton embryos (GD1 medium, dikegulac 200 mg/L); 10/50 with cotton embryos (GD1 medium, dikegulac 300 mg/L); 36/50 in the data set with cotton embryos (MS/B5 medium, dikegulac 100 mg/L); 9/50 in the data set on cotton embryos (setting [5]); 3/50 in the data set with cotton embryos (setting [6]). The “# Responding, multiple shoots” value in the data set with cotton embryos (GD1 medium, dikegulac 200 mg/L) is given as 21/50; in the data set on cotton embryos (GD1 medium, dikegulac 300 mg/L) it was 33/50; in the data set on cotton embryos (GD1 medium, dikegulac 400 mg/L), 37/50; in the data set with cotton embryos (GD1 medium, dikegulac 500 mg/L) it was 40/50; with cotton embryos (setting [5]), 38/50; with cotton embryos (setting [6]), 41/50. Besides, the “# Responding, multiple shoots” value is on record as 40/50 in the data set with cotton embryos (MS/B5 medium, dikegulac 400 mg/L) and 38/50 in the data set on cotton embryos (setting [7]). In the data set with cotton plants, the “Fertility of plants developed from elongated, rooted shoots” value amounted to 100%. Also, the “Morphology of plants developed from elongated, rooted shoots” value in the data set with cotton plants was “morphologically normal”. In addition, the “Extra buds per viable explant” value in data set [1] (setting [2]) is 3.4; in data set [1] (setting [3]), 3.8; in data set [1] (setting [4]) it was 4.2. In addition, the “No. non-viable Explants” value in data set [1] (setting [2]) is 16; in data set [1] (setting [3]) it was 8; in data set [1] (setting [4]), 1. In addition, the “Percent Responding” value in data set [1] (setting [2]) came to 67%; in data set [1] (setting [3]), 87%; in data set [1] (setting [4]) it was 96%.

Consider `CC1(C)OC[C@@H]2O[C@@]3(C(=O)O)OC(C)(C)O[C@H]3[C@@H]2O1` [dikegulac (sodium salt), 2,3:4,6-diisopropylidene-2-keto-1-gulonic acid], for which the “# Responding, multiple shoots” value in the data set on cotton embryos (GD1 medium, dikegulac 500 mg/L) was 35/50. In addition, the “# Responding, multiple shoots” value in the data set with cotton embryos (setting [7]) is reported as 39/50. Also, in the data set on cotton plants, the “Fertility of plants developed from elongated, rooted shoots” value came out at 100% and the “Morphology of plants developed from elongated, rooted shoots” value is recorded as “morphologically normal”. Moreover, the “Response of cotton explants” value in the data set on cotton explants was “swelling, enlarged meristems, and adventitious-like leaf primordia, but the explants did not easily grow out”.

Take `CC1(C)OC[C@@H]2O[C@@]3(C(=O)[O-])OC(C)(C)O[C@H]3[C@@H]2O1.[Na+]` [Q2161]: in data set [1] (setting [2]), the “Extra buds per viable explant” value came out at 3.5, the “No. non-viable Explants” value amounted to 20 and the “Percent Responding” value is given as 64%. Also, in data set [1] (setting [3]), the “Extra buds per viable explant” value is given as 2.9, the “No. non-viable Explants” value worked out at 9 and the “Percent Responding” value is listed as 85%.

Consider `CC1(C)OC[C@@H]2O[C@@]3(C(=O)[O-])OC(C)(C)O[C@H]3[C@@H]2O1.[Na+]` [RJK-D], for which, in data set [1] (setting [2]), the “Extra buds per viable explant” value was determined as 3.3, the “No. non-viable Explants” value is recorded as 11 and the “Percent Responding” value turned out to be 82%.

For the origin of these results see patent US8187882B2, “Multiple shoot proliferation and regeneration system for plants” (Monsanto Technology LLC, priority 2001, dated 2012).
